Experimental data published in article PMC6600523, “Interference with Amyloid-β Nucleation by Transient Ligand Interaction” (Molecules, 2019).
Where two headings read alike, the source gives them in different places. Where a SMILES comes first, the peptide text is derived from it. [ ]: non-standard residue; d: D form.

How the values were obtained:
Aβ42 [1] = molecular target: T1, Aβ42 (Homo sapiens, UniProt P05067); assay: Turbidity assay of Aβ42 samples with D3; type: physicochemical; conditions: 40 μM Aβ42 with 4, 20, 40 and 80 μM D3; 20 mM sodium phosphate, 50 mM NaCl pH 7.4; ambient temperature; directly and after 2 h; UV-Vis
T1 construct: purchased Bachem H-1368.1000
T1 sequence (P05067 672-713 limits assumed): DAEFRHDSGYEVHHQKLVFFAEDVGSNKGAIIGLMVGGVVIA
Protocol: The turbidity assay was carried out by measuring the spectra of all samples from 450 nm to 210 nm in a 1 cm quartz cuvette using a V-650 UV-Vis spectrophotometer (Jasco, Tokyo, Japan). The measurements were performed directly after preparing all samples, and repeated after 2 h of incubation at ambient temperature.

FITC-Aβ42 = molecular target: T2, FITC-Aβ42 (Homo sapiens, UniProt P05067); assay: Microscale thermophoresis, D3 titrated to FITC-Aβ42; type: binding
T2 construct: purchased Bachem M-2585.1000
T2 sequence (P05067 672-713 limits assumed): as above
Protocol: In detail, FITC-Aβ42 was dissolved in 20 mM sodium phosphate, 50 mM NaCl (pH 7.4—slightly alkali), 0.01% (v/v) Tw20 to obtain 80 nM stock solutions. 300 μM D3 was prepared in the same buffer. FITC-Aβ42 was then titrated with D3 solutions in 1:1 serial dilution steps to prepare 16 samples, in which the concentration of FITC-Aβ42 was kept constant at 40 nM, and the starting concentration of D3 was 150 μM. Samples were loaded into standard capillaries, and the thermophoresis was detected using a Monolith NT.115 (NanoTemper Technologies GmbH, Munich, Germany). The experiment was performed with 40% LED power and 60% microscale thermophoresis (MST) power. […] The final concentration of FITC-D3 in each sample was set to 40 nM. The LED power and MST power were adjusted to 30% and 60%, respectively. The on and off time for the IR laser was set to 30 s and 5 s. Since the working concentration of labeled molecules was rather low in this measurement, any signal loss due to surface adsorption might bias the data acquisition. Therefore trace amounts of Tw20 and PEI were used as additives in solution to minimize the unspecific surface adsorption of FITC-Aβ42 and FITC-D3 in capillaries, respectively. All measurements were conducted at 22 °C, and samples were prepared in triplicate.
The data was evaluated with PALMIST software (version 1.2.3) to obtain the dissociation constants. Changes in the normalized fluorescence ( ∆Fn ) with concentrations of the titrant were quantified and fitted with the 1:1 binding model available in the software using a 68.3% confidence interval. The graphic outputs were created using GUSSI (version 1.2.1).

Aβ42 [2] = molecular target: T1, Aβ42; assay: Circular dichroism spectroscopy, secondary structure transition of Aβ42; type: biochemical; conditions: 20 mM sodium phosphate, 50 mM NaF pH 7.4, 20 °C
Protocol: NaF was used to substitute NaCl in this measurement to maintain the ionic strength of the buffer, so as to avoid the strong absorbance of NaCl in the far-UV area. […] All samples were prepared on ice before being transferred to 1 mm path length quartz cuvettes. The final volume of each sample was 200 μL. Circular dichroism (CD) spectra were recorded from 260 nm to 190 nm using a J-815 spectropolarimeter (Jasco, Tokyo, Japan). All measurements were carried out with a step size of 0.5 nm and a bandwidth of 2 nm. The scanning speed was set to 100 nm/min and 10 scans were accumulated for each sample. […] Samples were maintained at 20 °C within the measurement duration of 120 h, and were prepared in triplicate. CD spectra for all samples were deconvoluted using the online server Dichroweb by applying the CDSSTR algorithm and reference dataset Set 7 [87].

Aβ42 [3] = molecular target: T1, Aβ42; assay: Absorbance-based AUC, size distribution of Aβ42 after 24 h; type: biochemical; conditions: 20 μM Aβ42 with 2 μM D3, 24 h, 20 mM sodium phosphate, 50 mM NaCl pH 7.4, 20 °C; absorbance AUC at 210 nm, 45,000 rpm; compared with Aβ42 alone
Protocol: In brief, 380 μL samples were loaded into 12-mm double-sector aluminum cellsm and were thermally equilibrated prior to the final centrifugation. The centrifugation was performed at 45,000 rpm, 20 °C for 15.5 h. Sedimentation profiles were recorded at 210 nm, with a radial resolution of 20 μm.
All sedimentation profiles were subjected to the software package SEDFIT (version 15.01b) for data evaluation. The data was analyzed with the continuous distribution c(s) Lamm equation model to obtain the sedimentation coefficient distributions. Fitting parameters (Table S1) including the buffer density and viscosity were determined using Sednterp (version 20130813BETA). […] Final graphs were generated using GUSSI (version 1.2.1) and sedimentation coefficients were standardized to s-values in pure water at 20 °C (s20,w).

[4] = molecular target: n-terminally biotinylated Aβ42 monomers; conditions: read-out: KD for D3 and Aβ42 by SPR; n-terminally biotinylated Aβ42 monomers fixed on sensor chips via biotin-streptavidin; cited from earlier work
Aβ42 [5] = molecular target: T1, Aβ42; assay: ThT assay, fibrillation kinetics of Aβ42; type: biochemical; conditions: 50 mM NaCl pH 7.4, 20 °C, AmyloFit fit, triplicate
Protocol: ThT was added at a final concentration of 5 μM in all samples. The final volume of each sample was 200 μL. Samples were prepared on ice and were pipetted into a 96-well plate afterwards. The plate was sealed with a microplate sealing film. All measurements were conducted at 20 °C with a microplate reader (Infinite M200, Tecan, Männedorf, Switzerland). The fluorescence was recorded at an excitation wavelength (λex) of 445 nm and an emission wavelength (λem) of 485 nm every 30 min for 120 h. […] All samples were prepared in triplicate.
The ThT data was then subjected to the online server AmyloFit with a customized sigmoidal Equation (1) to determine the lag time tlag , and the half completion time of the aggregation process t1/2 , according to previous studies. (1) It=k0t+A/1+exp−kt−t1/2, where k0 represents the slope of the baseline, A is the amplitude, k denotes the apparent elongation rate constant. The lag time tlag can be derived from the intercept between the time axis and the tangent with slope k from the midpoint of the fitted sigmoidal curve, which is given by the following Equation (2):(2) tlag=t1/2−2/k

[6] = 20 μM Aβ42 with (label D3) or without (label Aβ42) 2 μM D3, 20 mM sodium phosphate, 5 μM ThT
[7] = 20 μM Aβ42 with (label D3, 10:1) or without (label Aβ42) 2 μM D3, 55 mM Tris-HCl

## CC(C)C[C@@H](NC(=O)[C@@H](CCCNC(=N)N)NC(=O)[C@H](NC(=O)[C@@H](CCCNC(=N)N)NC(=O)[C@H]1CCCN1C(=O)[C@H](N)CCCNC(=N)N)[C@H](C)O)C(=O)N[C@H](Cc1c[nH]cn1)C(=O)N[C@@H](C(=O)N[C@H](Cc1c[nH]cn1)C(=O)N[C@H](CCCNC(=N)N)C(=O)N[C@H](CC(N)=O)C(=O)N[C@H](CCCNC(=N)N)C(N)=O)[C@H](C)O [D3] (H-[dR][dP][dR][dT][dR][dL][dH][dT][dH][dR][dN][dR]-NH2)
Aβ42 [1]
  Turbidity (absorbance at 405 nm) of Aβ42 samples on addition of D3: promotes the rapid formation of co-precipitates in a concentration-dependent manner
FITC-Aβ42; KD for D3 and Aβ42 (summary of both MST setups), both possible setups
  Kd: ~400 nM
FITC-Aβ42; MST, 40 nM FITC-Aβ42, D3 from 150 μM in 1:1 serial dilution, 20 mM sodium phosphate, 50 mM NaCl pH 7.4, 0.01% Tw20, 22 °C, 1:1 binding model (PALMIST), brackets = 68.3% confidence interval, triplicate, read-out: KD of D3 binding to FITC-Aβ42
  Kd: 270 nM
FITC-Aβ42; MST, 40 nM FITC-Aβ42, 5 mM sodium phosphate, 50 mM NaCl pH 7.4, 0.01% Tw20, 22 °C, 1:1 binding model, brackets = 68.3% confidence interval, read-out: KD of FITC-Aβ42 and D3 in low ionic strength buffer
  Kd: 88 nM
Aβ42 [2]; 4 μM D3 added into 40 μM Aβ42 after 33 h preincubation
  Effect of delayed D3 addition on the structural transformation of Aβ42: visibly delayed the structural transformation of Aβ42
Aβ42 [2]; 40 μM Aβ42 with 4 μM D3, at 120 h, triplicate
  Ellipticity at 217 nm of the Aβ42 sample with D3 relative to Aβ42 alone: about 72%
other
  MST KD compared with SPR KD: 10 fold
Aβ42 [3]
  Size distribution of Aβ42 samples with D3 after 24 h: no such large aggregates
[4]
  Kd: ~4000 nM
Aβ42 [5]; [6]
  Half completion time t1/2 of fibrillation kinetics: 79.3 ± 2.3 h
  Lag time tlag of fibrillation kinetics: 67.6 ± 3.8 h
  Slope k of fibrillation kinetics: 0.18 ± 0.07
Aβ42 [5]; [7]
  Half completion time t1/2 of fibrillation kinetics, Tris-HCl buffer: 74.5 ± 2.8 h
  Lag time tlag of fibrillation kinetics, Tris-HCl buffer: 59.3 ± 2.2 h
  Slope k of fibrillation kinetics, Tris-HCl buffer: 0.14 ± 0.04
